Measurements taken from PubChem BioAssay (NCI).
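Abbreviation: GI50, concentration required for 50% inhibition of growth. At the TGI there is no net growth.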

What was measured:
Assay in all cases: DTP human tumour cell line panel, 384-well format; in the data active = GI50 below about 0.43 µM; inactive = the rest
PC-3 prostate = system: PC-3 prostate
SW-620 colon = system: SW-620 colon
NCI-H226 lung = system: NCI-H226 lung
786-0 renal = system: 786-0 renal
SF-268 CNS = system: SF-268 CNS
SK-MEL-2 melanoma = system: SK-MEL-2 melanoma
MDA-MB-231 breast = system: MDA-MB-231 breast
U251 glioblastoma = system: U251 glioblastoma
COLO 205 colon = system: COLO 205 colon
SK-OV-3 ovarian = system: SK-OV-3 ovarian
KM12 colon = system: KM12 colon
MALME-3M melanoma = system: MALME-3M melanoma
EKVX NSCLC = system: EKVX NSCLC
OVCAR-5 ovarian = system: OVCAR-5 ovarian
SN12C renal = system: SN12C renal
CAKI-1 renal = system: CAKI-1 renal
UACC-257 melanoma = system: UACC-257 melanoma
SK-MEL-28 melanoma = system: SK-MEL-28 melanoma
CCRF-CEM leukemia = system: CCRF-CEM leukemia
MDA-MB-435 melanoma = system: MDA-MB-435 melanoma
BT-549 breast = system: BT-549 breast
MCF7 breast = system: MCF7 breast
TK-10 renal = system: TK-10 renal
HCC-2998 colon = system: HCC-2998 colon
HT29 colon = system: HT29 colon
LOX IMVI melanoma = system: LOX IMVI melanoma
NCI-H522 lung = system: NCI-H522 lung
NCI/ADR-RES ovarian = system: NCI/ADR-RES ovarian
RPMI-8226 leukemia = system: RPMI-8226 leukemia
K-562 leukemia = system: K-562 leukemia
OVCAR-4 ovarian = system: OVCAR-4 ovarian
SF-295 CNS = system: SF-295 CNS
SNB-75 CNS = system: SNB-75 CNS
OVCAR-3 ovarian = system: OVCAR-3 ovarian
NCI-H322M lung = system: NCI-H322M lung
HS 578T breast = system: HS 578T breast
SF-539 CNS = system: SF-539 CNS
IGROV1 ovarian = system: IGROV1 ovarian
RXF 393 renal = system: RXF 393 renal
HCT-116 colon = system: HCT-116 colon
UO-31 renal = system: UO-31 renal
HL-60(TB) leukemia = system: HL-60(TB) leukemia
NCI-H460 NSCLC = system: NCI-H460 NSCLC
SR leukemia = system: SR leukemia
HOP-62 NSCLC = system: HOP-62 NSCLC
UACC-62 melanoma = system: UACC-62 melanoma
HCT-15 colon = system: HCT-15 colon
T-47D breast = system: T-47D breast
SK-MEL-5 melanoma = system: SK-MEL-5 melanoma
HOP-92 NSCLC = system: HOP-92 NSCLC
MDA-MB-468 breast = system: MDA-MB-468 breast
SNB-19 CNS = system: SNB-19 CNS
A498 renal = system: A498 renal
MOLT-4 leukemia = system: MOLT-4 leukemia
NCI-H23 lung = system: NCI-H23 lung
ACHN renal = system: ACHN renal
DU-145 prostate = system: DU-145 prostate
A549 NSCLC = system: A549 NSCLC
M14 melanoma = system: M14 melanoma

CC1(C)CNc2cc(NC(=O)c3cccnc3NCc3ccncc3)ccc21
29.6 µM: TGI (RXF 393 renal)
41.6 µM: TGI (RPMI-8226 leukemia)
88.9 µM: TGI (SF-268 CNS)
inactive: GI50 (PC-3 prostate) 43.2 µM | GI50 (SW-620 colon) 49.6 µM | GI50 (NCI-H226 lung) 9.96 µM | GI50 ([…]-0 renal) 35.8 µM | GI50 (SF-268 CNS) 25.2 µM | GI50 (SK-MEL-2 melanoma) 39.2 µM | GI50 (MDA-MB-231 breast) 24.5 µM | GI50 (U251 glioblastoma) 46 µM | GI50 (COLO 205 colon) 31.6 µM | GI50 (SK-OV-3 ovarian) 18.6 µM | GI50 (KM12 colon) 38.8 µM | GI50 (MALME-3M melanoma) 20.1 µM | GI50 (EKVX NSCLC) 17.9 µM | GI50 (OVCAR-5 ovarian) 52.9 µM | GI50 (SN12C renal) 30.4 µM | GI50 (CAKI-1 renal) 19.4 µM | GI50 (UACC-257 melanoma) 30.9 µM | GI50 (SK-MEL-28 melanoma) 37.8 µM | GI50 (CCRF-CEM leukemia) 12.7 µM | GI50 (MDA-MB-435 melanoma) 29.4 µM | GI50 (BT-549 breast) 26.1 µM | GI50 (MCF7 breast) 23.3 µM | GI50 (TK-10 renal) 14.2 µM | GI50 (HCC-2998 colon) 38 µM | GI50 (HT29 colon) 24.6 µM | GI50 (LOX IMVI melanoma) 24.9 µM | GI50 (NCI-H522 lung) 20.4 µM | GI50 (NCI/ADR-RES ovarian) 17.8 µM | GI50 (RPMI-8226 leukemia) 16 µM | GI50 (K-562 leukemia) 12.7 µM | GI50 (OVCAR-4 ovarian) 13.7 µM | GI50 (SF-295 CNS) 35.7 µM | GI50 (SNB-75 CNS) 22.1 µM | GI50 (OVCAR-3 ovarian) 14.8 µM | GI50 (NCI-H322M lung) 33.4 µM | GI50 (HS 578T breast) 15.8 µM | GI50 (SF-539 CNS) 14.3 µM | GI50 (IGROV1 ovarian) 12.5 µM | GI50 (RXF 393 renal) 11 µM | GI50 (HCT-116 colon) 46.7 µM | GI50 (UO-31 renal) 25 µM | GI50 (HL-60(TB) leukemia) 25.5 µM | GI50 (NCI-H460 NSCLC) 25.1 µM | GI50 (SR leukemia) 11.4 µM | GI50 (HOP-62 NSCLC) 70.9 µM | GI50 (UACC-62 melanoma) 19.1 µM | GI50 (HCT-15 colon) 16.6 µM | GI50 (T-47D breast) 14.9 µM | GI50 (SK-MEL-5 melanoma) 13.1 µM | GI50 (HOP-92 NSCLC) 21.1 µM | GI50 (MDA-MB-468 breast) 9.35 µM | GI50 (SNB-19 CNS) 44.8 µM | GI50 (A498 renal) 25.6 µM | GI50 (MOLT-4 leukemia) 12.7 µM | GI50 (NCI-H23 lung) 25.8 µM | GI50 (ACHN renal) 10.7 µM | GI50 (DU-145 prostate) 21.3 µM | GI50 (A549 NSCLC) 31.2 µM | GI50 (M14 melanoma) 24.9 µM
27.6 µM: TGI (CCRF-CEM leukemia)
61.4 µM: TGI (SK-OV-3 ovarian)
60.6 µM: TGI (OVCAR-4 ovarian)
52.5 µM: TGI (LOX IMVI melanoma) | TGI (K-562 leukemia)
58.3 µM: TGI (SK-MEL-2 melanoma)
98.4 µM: TGI (MDA-MB-435 melanoma)
42.7 µM: TGI (NCI/ADR-RES ovarian)
64.5 µM: TGI (ACHN renal)
97.7 µM: TGI (UACC-62 melanoma)
48.6 µM: TGI (EKVX NSCLC)
40.3 µM: TGI (IGROV1 ovarian)
82.9 µM: TGI (NCI-H23 lung)
66.8 µM: TGI (HT29 colon)
25.1 µM: TGI (MDA-MB-468 breast)
65.5 µM: TGI (BT-549 breast)
50.2 µM: TGI (NCI-H522 lung)
31.4 µM: TGI (NCI-H226 lung)
40.5 µM: TGI (HS 578T breast)
66.5 µM: TGI (MALME-3M melanoma)
82 µM: TGI (MDA-MB-231 breast)
28.3 µM: TGI (SK-MEL-5 melanoma)
42.4 µM: TGI (HL-60(TB) leukemia)
83.3 µM: TGI (HOP-92 NSCLC)
26.5 µM: TGI (MOLT-4 leukemia)
> 100 µM: TGI (PC-3 prostate) | TGI (SW-620 colon) | TGI (786-0 renal) | TGI (U251 glioblastoma) | TGI (COLO 205 colon) | TGI (KM12 colon) | TGI (OVCAR-5 ovarian) | TGI (SN12C renal) | TGI (CAKI-1 renal) | TGI (UACC-257 melanoma) | TGI (SK-MEL-28 melanoma) | TGI (MCF7 breast) | TGI (TK-10 renal) | TGI (HCC-2998 colon) | TGI (SF-295 CNS) | TGI (NCI-H322M lung) | TGI (SF-539 CNS) | TGI (HCT-116 colon) | TGI (NCI-H460 NSCLC) | TGI (HOP-62 NSCLC) | TGI (SNB-19 CNS) | TGI (A498 renal) | TGI (DU-145 prostate) | TGI (A549 NSCLC) | TGI (M14 melanoma)
40.6 µM: TGI (OVCAR-3 ovarian)
47.3 µM: TGI (T-47D breast)
85.5 µM: TGI (UO-31 renal)
24.3 µM: TGI (SR leukemia)
80.9 µM: TGI (SNB-75 CNS)
44.7 µM: TGI (HCT-15 colon)
